The subject of assay [1] is U937 human histiocytic leukemia cell line. Nature of the assay: Inhibition of TSQ induced necroptosis in U937 cells (CellTitre-Glo). The following applies: Homo sapiens, U-937, TSQ cocktail (TNF, Smac mimetic, Q-VD-OPh), 48 hours, read-out: Inhibition of TSQ-induced necroptosis (IC50 cell-based assay). The procedure, abridged: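 U937 cells (20000/well) treated with compound (10-point, 1:3 from 36 μM, 0.3% DMSO) plus TSQ cocktail (hTNF-Fc 100 ng/ml, Smac mimetic 500 nM, Q-VD-OPh 10 μM), 48 h at 37 °C. Viability by CellTiter-Glo luminescence; IC50 from 4-parameter logistic fit. Counter screen: same cells without TSQ.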

The target in assay [2] is human RIPK3 (Homo sapiens (Human), UniProt Q9Y572). Nature of the assay: KINOMEscan binding assay, human RIPK3. The following applies: equilibrium dissociation constant. The procedure, abridged:
(§1)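 Compound dilutions (11 points, 3-fold, mostly from 30,000 nM, 1% DMSO final) competed with immobilized ligand for DNA- or phage-tagged protein, and bead-bound protein was measured by qPCR. Kd values came from Hill-equation fits with slope −1 (Levenberg-Marquardt).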

Assay [3] relates to U937 cells. Nature of the assay: Counter screen: U937 cell viability without TSQ cocktail (off-target effect). The arrangement: species or system human. The following applies: Homo sapiens, U-937, compound without TSQ cocktail, read-out: Off-target effect (IC50 cell-based assay). In short, it runs like this: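 U937 cells (20,000/well) exposed to compound (10-point 1:3 titration from 36 μM, 0.3% DMSO) without TSQ cocktail for 48 h at 37 °C/5% CO2. Viability read as ATP by CellTiter-Glo luminescence; IC50 from 4-parameter logistic fit.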
(Counterscreens check selectivity or assay interference.)

The target of assay [4] is human MLKL (full length) (Homo sapiens (Human), UniProt Q8NB16). Nature of the assay: KINOMEscan binding assay, human MLKL (full length). The following applies: equilibrium dissociation constant. The procedure, abridged: as §1
Chain of human MLKL (full length) (Q8NB16 whole entry): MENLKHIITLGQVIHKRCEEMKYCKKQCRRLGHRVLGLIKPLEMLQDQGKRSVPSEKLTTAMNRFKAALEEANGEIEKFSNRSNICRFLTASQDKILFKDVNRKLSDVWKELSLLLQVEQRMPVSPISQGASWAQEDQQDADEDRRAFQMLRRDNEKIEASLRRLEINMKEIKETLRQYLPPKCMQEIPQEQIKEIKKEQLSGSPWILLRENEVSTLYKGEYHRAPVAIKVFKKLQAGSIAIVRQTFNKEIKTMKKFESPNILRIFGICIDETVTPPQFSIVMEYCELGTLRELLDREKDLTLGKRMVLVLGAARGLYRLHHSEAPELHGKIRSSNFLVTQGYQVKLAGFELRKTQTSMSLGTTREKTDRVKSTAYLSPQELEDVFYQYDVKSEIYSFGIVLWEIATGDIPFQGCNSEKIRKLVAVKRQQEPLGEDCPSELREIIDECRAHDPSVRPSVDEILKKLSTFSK
In assay [5] the target is human RIPK1 (Homo sapiens (Human), UniProt Q13546). Nature of the assay: KINOMEscan binding assay, human RIPK1. The following applies: equilibrium dissociation constant. In short, it runs like this: as §1
Chain of human RIPK1 (Q13546 whole entry): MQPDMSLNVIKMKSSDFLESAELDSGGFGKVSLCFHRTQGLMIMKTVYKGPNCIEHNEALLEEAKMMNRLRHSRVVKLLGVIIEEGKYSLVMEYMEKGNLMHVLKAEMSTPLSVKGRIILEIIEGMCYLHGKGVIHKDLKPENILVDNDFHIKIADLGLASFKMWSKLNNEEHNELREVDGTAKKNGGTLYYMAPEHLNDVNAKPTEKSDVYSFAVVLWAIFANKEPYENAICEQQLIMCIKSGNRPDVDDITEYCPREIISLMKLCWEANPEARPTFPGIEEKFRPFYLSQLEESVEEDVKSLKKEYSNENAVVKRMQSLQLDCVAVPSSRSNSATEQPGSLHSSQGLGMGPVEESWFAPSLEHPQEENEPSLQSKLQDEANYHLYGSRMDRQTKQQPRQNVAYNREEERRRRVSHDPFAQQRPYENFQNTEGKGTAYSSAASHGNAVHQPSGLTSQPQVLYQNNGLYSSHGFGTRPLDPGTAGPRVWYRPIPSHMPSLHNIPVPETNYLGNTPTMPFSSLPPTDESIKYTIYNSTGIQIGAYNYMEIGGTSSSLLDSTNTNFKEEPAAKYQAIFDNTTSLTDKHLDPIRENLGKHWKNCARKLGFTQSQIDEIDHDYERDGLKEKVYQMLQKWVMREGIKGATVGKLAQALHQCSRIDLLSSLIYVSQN

pIC50, pKd: −log10 of the molar value. Bounds are passed on as bounds.

Chain of human RIPK3 (Q9Y572 whole entry): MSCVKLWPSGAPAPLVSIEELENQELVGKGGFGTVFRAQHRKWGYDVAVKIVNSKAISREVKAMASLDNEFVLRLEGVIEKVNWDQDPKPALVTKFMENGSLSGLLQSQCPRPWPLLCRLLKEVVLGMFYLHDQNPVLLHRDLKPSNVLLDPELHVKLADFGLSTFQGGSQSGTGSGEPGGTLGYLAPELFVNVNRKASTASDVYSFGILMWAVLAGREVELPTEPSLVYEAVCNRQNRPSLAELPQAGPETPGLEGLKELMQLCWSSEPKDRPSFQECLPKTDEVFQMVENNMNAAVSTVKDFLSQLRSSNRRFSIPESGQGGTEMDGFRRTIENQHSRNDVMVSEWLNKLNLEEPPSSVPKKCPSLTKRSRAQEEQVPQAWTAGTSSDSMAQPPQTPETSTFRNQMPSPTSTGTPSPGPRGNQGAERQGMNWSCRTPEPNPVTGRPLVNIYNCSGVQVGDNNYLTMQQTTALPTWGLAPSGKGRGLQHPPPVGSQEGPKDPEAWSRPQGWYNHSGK

For `Cc1ccc(-c2cnc(N)c3c(-c4ccc(NS(=O)(=O)C(F)F)c(O[C@@H](C)c5ccc(F)cc5)c4)nn(C)c23)cn1` [Compound 26, (S)-N-(4-(4-amino-1-methyl-7-(6-methylpyridin-3-yl)-1H-pyrazolo[4,3-c]pyridin-3-yl)-2-(1-(4-fluorophenyl)ethoxy)phenyl)-1,1-difluoromethanesulfonamide], the pIC50 is 6.00 to 8.00 in assay [1] and less than 5.00 in assay [3]. Besides, the figures for the pKd in assay [2], in assay [4] and in assay [5] were less than 5.00, greater than 9.00 and less than 5.00, respectively.

As for `C[C@H](Oc1cc(-c2nn(C)c3c(C#CC4CCOCC4)cnc(N)c23)ccc1NS(=O)(=O)C(F)F)c1ccc(F)cc1` [Compound 58, (S)-N-(4-(4-amino-1-methyl-7-((tetrahydro-2H-pyran-4-yl)ethynyl)-1H-pyrazolo[4,3-c]pyridin-3-yl)-2-(1-(4-fluorophenyl)ethoxy)phenyl)-1,1-difluoromethanesulfonamide], the pIC50 in assay [1] was 6.00 to 8.00; in assay [3], less than 5.00. Further, the pKd in assay [2] is less than 5.00; in assay [4], greater than 9.00; in assay [5], less than 5.00.

`C[C@H](Oc1cc(-c2nn(C)c3c(-c4ccc5c(c4)CC(=O)N5C)cnc(N)c23)ccc1NS(=O)(=O)C(F)F)c1ccc(F)cc1` [Compound 165, (S)-N-(4-(4-amino-1-methyl-7-(1-methyl-2-oxoindolin-5-yl)-1H-pyrazolo[4,3-c]pyridin-3-yl)-2-(1-(4-fluorophenyl)ethoxy)phenyl)-1,1-difluoromethanesulfonamide]: the results for the negative-log IC50 (pIC50) in assay [1] and in assay [3] were 6.00 to 8.00 and less than 5.00, respectively. The pKd in assay [2] was less than 5.00; in assay [4], 7.00 to 9.00; in assay [5], less than 5.00.

Regarding `C[C@H](Oc1cc(-c2nn(C)c3c(C#N)cnc(N)c23)ccc1NS(=O)(=O)C(F)F)c1ccc(F)cc1` [Compound 133, N-(4-{4-amino-7-cyano-1-methyl-1H-pyrazolo[4,3-c]pyridin-3-yl}-2-[(1S)-1-(4-fluorophenyl)ethoxy]phenyl)-1,1-difluoromethanesulfonamide], the negative logarithm of the IC50 (pIC50) is 6.00 to 8.00 in assay [1] and less than 5.00 in assay [3]. Besides, the pKd was less than 5.00 in assay [2], greater than 9.00 in assay [4] and less than 5.00 in assay [5].

On to `CC(C)n1nc(-c2ccc(NS(=O)(=O)C(F)F)c(O[C@@H](C)c3ccc(F)cc3)c2)c2c(N)ncc(-c3cnn(C4CCOCC4)c3)c21` [Compound 51, (S)-N-(4-(4-amino-1-isopropyl-7-(1-(tetrahydro-2H-pyran-4-yl)-1H-pyrazol-4-yl)-1H-pyrazolo[4,3-c]pyridin-3-yl)-2-(1-(4-fluorophenyl)ethoxy)phenyl)-1,1-difluoromethanesulfonamide], for which the pIC50 is 6.00 to 8.00 in assay [1] and less than 5.00 in assay [3]. In addition, the values for the pKd in assay [2], in assay [4] and in assay [5] were less than 5.00, 7.00 to 9.00 and less than 5.00, respectively.

Turning to `CNCCn1cc(-c2cnc(N)c3c(-c4ccc(NS(=O)(=O)C(F)F)c(O[C@@H](C)c5ccc(F)cc5)c4)nn(C)c23)cn1` [Compound 82, (S)-N-(4-(4-amino-1-methyl-7-(1-(2-(methylamino)ethyl)-1H-pyrazol-4-yl)-1H-pyrazolo[4,3-c]pyridin-3-yl)-2-(1-(4-fluorophenyl)ethoxy)phenyl)-1,1-difluoromethanesulfonamide], the pIC50 is 6.00 to 8.00 in assay [1] and less than 5.00 in assay [3]. For the same molecule, the pKd was less than 5.00 in assay [2], greater than 9.00 in assay [4] and less than 5.00 in assay [5].

Consider `C[C@H](Oc1cc(-c2nn(C)c3c(-c4cnn(C5CCN(C)C5)c4)cnc(N)c23)ccc1NS(=O)(=O)C(F)F)c1ccc(F)cc1` (stereo partly drawn) [Compound 93, N-(4-(4-amino-1-methyl-7-(1-(1-methylpyrrolidin-3-yl)-1H-pyrazol-4-yl)-1H-pyrazolo[4,3-c]pyridin-3-yl)-2-((S)-1-(4-fluorophenyl)ethoxy)phenyl)-1,1-difluoromethanesulfonamide], for which the pIC50 in assay [1] was 6.00 to 8.00; in assay [3], less than 5.00. Besides, the figures for the pKd in assay [2], in assay [4] and in assay [5] were less than 5.00, greater than 9.00 and less than 5.00, respectively.

As to `CC(C)N(C)CC(C)n1cc(-c2cnc(N)c3c(-c4ccc(NS(=O)(=O)C(F)F)c(O[C@@H](C)c5ccc(F)cc5)c4)nn(C)c23)cn1` (stereo partly drawn) [Compound 101, N-(4-(4-amino-7-(1-(1-(isopropyl(methyl)amino)propan-2-yl)-1H-pyrazol-4-yl)-1-methyl-1H-pyrazolo[4,3-c]pyridin-3-yl)-2-((S)-1-(4-fluorophenyl)ethoxy)phenyl)-1,1-difluoromethanesulfonamide], the figures for the pIC50 in assay [1] and in assay [3] were greater than 8.00 and less than 5.00, respectively. For the same molecule, the pKd is less than 5.00 in assay [2], greater than 9.00 in assay [4] and less than 5.00 in assay [5].

Take `C[C@H](Oc1cc(-c2nn(C)c3c(-c4cnn(C5(CN)CC5)c4)cnc(N)c23)ccc1NS(=O)(=O)C(F)F)c1ccc(F)cc1` [Compound 89, (S)—N-(4-(4-amino-7-(1-(1-(aminomethyl)cyclopropyl)-1H-pyrazol-4-yl)-1-methyl-1H-pyrazolo[4,3-c]pyridin-3-yl)-2-(1-(4-fluorophenyl)ethoxy)phenyl)-1,1-difluoromethanesulfonamide]: the pIC50 in assay [1] was 6.00 to 8.00; in assay [3] it was less than 5.00. The figures for the pKd in assay [2], in assay [4] and in assay [5] were less than 5.00, greater than 9.00 and less than 5.00, respectively.

For `C[C@H](Oc1cc(-c2nn(C)c3c(-c4cnn(C5CN(C)C5)c4)cnc(N)c23)ccc1NS(=O)(=O)C(F)F)c1ccc(F)cc1` [Compound 92, (S)-N-(4-(4-amino-1-methyl-7-(1-(1-methylazetidin-3-yl)-1H-pyrazol-4-yl)-1H-pyrazolo[4,3-c]pyridin-3-yl)-2-(1-(4-fluorophenyl)ethoxy)phenyl)-1,1-difluoromethanesulfonamide], the pIC50 was 6.00 to 8.00 in assay [1] and less than 5.00 in assay [3]. The pKd is less than 5.00 in assay [2], greater than 9.00 in assay [4] and less than 5.00 in assay [5].

Regarding `CNc1ncc(-n2cc(-c3cnc(N)c4c(-c5ccc(NS(=O)(=O)C(F)F)c(O[C@@H](C)c6ccc(F)cc6)c5)nn(C)c34)cn2)cn1` [Compound 138, (S)-N-(4-(4-amino-1-methyl-7-(1-(2-(methylamino)pyrimidin-5-yl)-1H-pyrazol-4-yl)-1H-pyrazolo[4,3-c]pyridin-3-yl)-2-(1-(4-fluorophenyl)ethoxy)phenyl)-1,1-difluoromethanesulfonamide], the pIC50 in assay [1] was 6.00 to 8.00; in assay [3], less than 5.00. Further, the results for the pKd in assay [2], in assay [4] and in assay [5] were less than 5.00, 7.00 to 9.00 and less than 5.00, respectively.

Turning to `COc1ccc(-c2cnc(N)c3c(-c4ccc(NS(=O)(=O)C(F)F)c(O[C@@H](C)c5ccc(F)cc5)c4)nn(C)c23)cn1` [Compound 28, (S)-N-(4-(4-amino-7-(6-methoxypyridin-3-yl)-1-methyl-1H-pyrazolo[4,3-c]pyridin-3-yl)-2-(1-(4-fluorophenyl)ethoxy)phenyl)-1,1-difluoromethanesulfonamide], the results for the negative-log IC50 (pIC50) in assay [1] and in assay [3] were 6.00 to 8.00 and less than 5.00, respectively. For the same molecule, the pKd in assay [2] was less than 5.00; in assay [4] it was greater than 9.00; in assay [5] it was less than 5.00.

By pIC50 is commonly meant the IC50 on a negative log10 scale, so that one unit is a factor of ten. As a reminder, the pKd is the negative decadic logarithm of the Kd, by convention in mol/L. The low end stands for a large Kd, the high end for a small Kd.

Source of the values: patent US20250059188A1, “ARYLSULPHONAMIDE COMPOUNDS” (Anaxis Pharma Pty Ltd, priority 2021, published 2025).
